# Reference: ChEMBL document CHEMBL1773026, “Inhalation by design: dual pharmacology β-2 agonists/M3 antagonists for the treatment of COPD” (Bioorg Med Chem Lett, 2011)
# pEC50, pKi: −log10 of the molar value.
# Key:
# [1] = Clearance in human liver microsomes; type: ADME, Microsome
# [2] = target: T1, Muscarinic acetylcholine receptor M3 (Homo sapiens, UniProt P20309); assay: Displacement of [3H]NMS from human muscarinic M3 receptor expressed in CHO cells assessed as time required to reach 50% of total [3H]NMS binding by dilution-offset methodology; type: cell-based
# Target sequence in this assay (P20309 whole entry, looked up): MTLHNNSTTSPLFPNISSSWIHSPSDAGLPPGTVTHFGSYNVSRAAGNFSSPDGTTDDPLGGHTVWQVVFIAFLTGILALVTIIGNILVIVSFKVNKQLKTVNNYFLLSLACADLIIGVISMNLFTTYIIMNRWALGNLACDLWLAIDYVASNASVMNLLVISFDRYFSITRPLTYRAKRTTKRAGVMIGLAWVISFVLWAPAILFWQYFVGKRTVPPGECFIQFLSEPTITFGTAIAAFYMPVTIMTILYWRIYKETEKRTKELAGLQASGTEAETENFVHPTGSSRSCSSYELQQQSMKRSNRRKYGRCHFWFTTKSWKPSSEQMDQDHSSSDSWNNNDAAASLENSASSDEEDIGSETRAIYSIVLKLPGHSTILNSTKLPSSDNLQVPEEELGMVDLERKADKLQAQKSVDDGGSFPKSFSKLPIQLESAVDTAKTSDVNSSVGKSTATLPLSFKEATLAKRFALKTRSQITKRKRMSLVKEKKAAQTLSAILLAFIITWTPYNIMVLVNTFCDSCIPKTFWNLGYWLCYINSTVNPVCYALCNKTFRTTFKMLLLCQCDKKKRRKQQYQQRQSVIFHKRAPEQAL
# [3] = target: T1, Muscarinic acetylcholine receptor M3; assay: Displacement of [3H]N-methyl Scopolamine from human muscarinic M3 receptor expressed in CHO cells by scintillation proximity assay; type: cell-based
# Target sequence in this assay (P20309 whole entry): as the sequence (P20309 whole entry, looked up) above
# [4] = target: T2, Beta-2 adrenergic receptor (Homo sapiens, UniProt P07550); assay: Ratio of EC50 for human beta2 adrenergic receptor by unwashed assay to EC50 for human beta2 adrenergic receptor expressed in CHO cells by wash-off assay; type: cell-based
# Target sequence in this assay (P07550 whole entry, looked up): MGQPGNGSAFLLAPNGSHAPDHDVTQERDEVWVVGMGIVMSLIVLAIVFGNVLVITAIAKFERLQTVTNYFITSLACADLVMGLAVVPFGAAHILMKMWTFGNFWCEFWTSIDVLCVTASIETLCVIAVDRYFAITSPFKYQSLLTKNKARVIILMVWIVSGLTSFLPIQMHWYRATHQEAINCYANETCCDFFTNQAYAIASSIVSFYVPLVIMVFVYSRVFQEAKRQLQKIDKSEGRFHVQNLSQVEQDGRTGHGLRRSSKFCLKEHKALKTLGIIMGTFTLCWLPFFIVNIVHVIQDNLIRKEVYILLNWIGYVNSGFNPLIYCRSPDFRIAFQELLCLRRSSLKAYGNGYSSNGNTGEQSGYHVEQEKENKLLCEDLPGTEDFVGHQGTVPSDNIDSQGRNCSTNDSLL
# [5] = target: T2, Beta-2 adrenergic receptor; assay: Agonist activity at human beta2 adrenergic receptor expressed in CHO cells assessed as stimulation of intracellular cAMP production after 30 mins of washing by wash-off assay; type: functional, cell-based
# Target sequence in this assay (P07550 whole entry): as the sequence (P07550 whole entry, looked up) above
# [6] = Bronchodilatory activity against electrically-stimulated contraction in guinea pig trachea assessed as time taken for inducing 50% maximum relaxant effect; type: functional, Cavia porcellus
# [7] = target: Muscarinic acetylcholine receptor M3 (Cavia porcellus) (UniProt Q8VH26); assay: […] activity at muscarinic M3 receptor in guinea pig trachea assessed as time taken for inducing bronchorelaxation activity in presence of propranolol; type: functional, tissue-based
# [8] = Bronchodilatory activity against electrically-stimulated contraction in guinea pig trachea assessed as concentration required for 50% bronchorelaxation activity; type: functional, tissue-based, Cavia porcellus
# [9] = target: Beta-2 adrenergic receptor (Cavia porcellus, UniProt Q8K4Z4); assay: Agonist activity at adrenergic beta2 receptor in guinea pig trachea assessed as bronchorelaxation activity against histamine-induced contraction; type: functional
# [10] = target: Muscarinic acetylcholine receptor M3 (Cavia porcellus, UniProt Q8VH26); assay: […] activity at muscarinic M3 receptor in guinea pig trachea assessed as bronchorelaxation activity in presence of propranolol; type: functional, tissue-based
# [11] = Oral bioavailability in human; type: ADME, organism-based; settings: in vivo
# [12] = Clearance in rat at 2 mg/kg, iv; type: ADME, organism-based; parameters: dose 2 mg/kg, route intravenous; settings: in vivo
# Canis familiaris [13] = organism: Canis familiaris; assay: Inhibition of methacholine-induced bronchoconstriction in dog assessed as duration action at 30 ug, it; type: functional, Canis lupus familiaris
# Canis familiaris [14] = organism: Canis familiaris; assay: Inhibition of methacholine-induced bronchoconstriction in dog; type: functional, Canis lupus familiaris
# [15] = AUC in rat at 2 mg/kg, iv; type: ADME, organism-based; parameters: dose 2 mg/kg, route intravenous; settings: plasma
# Beta-2 adrenergic receptor (Cavia porcellus, UniProt Q8K4Z4), sequence (Q8K4Z4 whole entry): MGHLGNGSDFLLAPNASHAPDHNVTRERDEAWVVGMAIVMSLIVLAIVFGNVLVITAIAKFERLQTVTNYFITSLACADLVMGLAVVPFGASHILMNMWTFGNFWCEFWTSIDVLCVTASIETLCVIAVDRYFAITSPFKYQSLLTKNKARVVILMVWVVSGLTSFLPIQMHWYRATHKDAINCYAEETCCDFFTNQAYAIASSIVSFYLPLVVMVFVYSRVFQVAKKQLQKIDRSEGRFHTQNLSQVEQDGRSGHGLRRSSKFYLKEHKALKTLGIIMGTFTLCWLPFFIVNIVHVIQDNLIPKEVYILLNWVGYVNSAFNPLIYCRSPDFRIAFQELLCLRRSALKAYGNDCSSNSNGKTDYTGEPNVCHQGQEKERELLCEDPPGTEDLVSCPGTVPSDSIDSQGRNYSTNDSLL
# Muscarinic acetylcholine receptor M3 (Cavia porcellus), sequence (Q8VH26 1-587): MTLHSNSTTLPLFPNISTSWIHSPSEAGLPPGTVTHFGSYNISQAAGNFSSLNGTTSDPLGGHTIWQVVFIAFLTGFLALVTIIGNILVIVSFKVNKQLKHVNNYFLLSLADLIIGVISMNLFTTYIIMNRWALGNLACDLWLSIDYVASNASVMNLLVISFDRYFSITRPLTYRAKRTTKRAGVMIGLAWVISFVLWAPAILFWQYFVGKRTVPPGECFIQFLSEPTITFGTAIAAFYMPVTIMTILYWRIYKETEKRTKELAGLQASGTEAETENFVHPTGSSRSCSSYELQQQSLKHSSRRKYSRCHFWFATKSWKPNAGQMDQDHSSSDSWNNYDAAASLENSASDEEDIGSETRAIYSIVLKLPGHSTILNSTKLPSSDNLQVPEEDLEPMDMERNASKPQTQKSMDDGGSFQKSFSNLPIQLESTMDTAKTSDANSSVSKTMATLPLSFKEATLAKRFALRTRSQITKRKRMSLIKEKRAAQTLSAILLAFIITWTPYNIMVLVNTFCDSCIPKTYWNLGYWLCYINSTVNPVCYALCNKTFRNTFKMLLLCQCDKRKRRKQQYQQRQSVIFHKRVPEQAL
# Muscarinic acetylcholine receptor M3 (Cavia porcellus, UniProt Q8VH26), sequence (Q8VH26 whole entry): as the sequence (Q8VH26 1-587) above
Structure (SMILES),microsomal CLint [1] [µL/min/mg],TIME [2] [h],pKi [3],Ratio EC50 [4],pEC50 [5],Time [6] [h],TIME [7] [h],pEC50 [8],pEC50 [9],pEC50 [10],bioavailability [11] [%],clearance [12] [mL/min/kg],Time (Canis familiaris [13]) [h],ED50 (Canis familiaris [14]) [µg],AUC [15] [ng·h/mL]
CC(C)N(CC[C@H](c1ccccc1)c1cc(CCCNC(=O)Cc2cccc(CC(C)(C)NC[C@H](O)c3ccc(O)c(CO)c3)c2)ccc1O)C(C)C,263,5.92,10.04,2.8,7.77,,,,,,,,,,
CC(C)N(CC[C@H](c1ccccc1)c1cc(CCCCOc2ccc(CCNC[C@H](O)c3ccc(O)c(O)c3)cc2)ccc1O)C(C)C,,,8.33,,6.76,,,,,,,,,,
CC(C)N(CC[C@H](c1ccccc1)c1cc(CCNC[C@H](O)c2ccc(O)c(NS(C)(=O)=O)c2)ccc1O)C(C)C,,< 0.25,8.21,19,8.00,,,,,,,,,,
CC(C)N(CC[C@H](c1ccccc1)c1cc(CCCCOc2ccc(CCNC[C@H](O)c3ccc(O)c(NS(C)(=O)=O)c3)cc2)ccc1O)C(C)C,67,> 20,9.20,1.9,7.89,,,,,,,,,,
Cc1ccc(O)c([C@H](CCN(C(C)C)C(C)C)c2ccccc2)c1 [TOLTERODINE],163,< 0.25,,,,,,,,,,,,,
CC(C)N(CC[C@H](c1ccccc1)c1cc(CCCCOc2ccc(CCNC[C@H](O)c3ccc(O)c4[nH]c(=O)ccc34)cc2)ccc1O)C(C)C,74,> 20,9.52,1.1,8.62,>7.7,> 10,8.39,8.40,8.40,< 5,12.6,>16,30,2670
CC(C)N(CC[C@H](c1ccccc1)c1cc(CCCNC(=O)Cc2cccc(C[C@@H](C)NC[C@H](O)c3cc(O)cc(O)c3)c2)ccc1O)C(C)C,> 440,2.25,9.40,0.7,7.82,,,,,,,,,,
CC(C)N(CC[C@H](c1ccccc1)c1cc(CCCNC(=O)CCCCCCCCCCNC[C@H](O)c2ccc(O)c(NS(C)(=O)=O)c2)ccc1O)C(C)C,87,,8.84,7.3,6.94,,,,,,,,,,

# The remaining compounds from weak to strong by pEC50 [5], led by results:
microsomal CLint [1] [µL/min/mg],TIME [2] [h],pKi [3],Ratio EC50 [4],pEC50 [5],Structure (SMILES),Time [6] [h],TIME [7] [h],pEC50 [8],pEC50 [9],pEC50 [10],bioavailability [11] [%],clearance [12] [mL/min/kg],Time (Canis familiaris [13]) [h],ED50 (Canis familiaris [14]) [µg],AUC [15] [ng·h/mL]
54,> 20,9.12,2.6,6.89,CC(C)N(CC[C@H](c1ccccc1)c1cc(CCCCOc2ccc(CCNC[C@H](O)c3ccc(O)c(CO)c3)cc2)ccc1O)C(C)C,,,,,,,,,,
109,2.77,9.56,1.1,8.09,CC(C)N(CC[C@H](c1ccccc1)c1cc(CCCNC(=O)Cc2cccc(CC(C)(C)NC[C@H](O)c3ccc(O)c(NS(C)(=O)=O)c3)c2)ccc1O)C(C)C,>6.5,4.8,8.89,8.68,8.28,,,,,
57,> 20,9.00,0.7,8.24,CC(C)N(CC[C@H](c1ccccc1)c1cc(CCCCOCCCCCCNC[C@H](O)c2ccc(O)c(NS(C)(=O)=O)c2)ccc1O)C(C)C,,,,,,,,,,
> 440,,,2.9,8.96,C[C@H](Cc1cccc(CC(=O)NCc2ccc(Cl)c(Cl)c2)c1)NC[C@H](O)c1ccc(O)c(CO)c1,,,,,,,,,,
